Experiments:
[1] = Ratio of drug level in brain to blood in Lister Hooded rat at 3 mg/kg, po after 3 hrs; type: ADME, organism-based; design: dose 3 mg/kg, route oral
[2] = Drug uptake in Lister Hooded rat blood at 3 mg/kg, po after 3 hrs; type: ADME, organism-based; design: dose 3 mg/kg, route oral; conditions: read-out: Drug uptake
[3] = Half life in Sprague-Dawley rat at 1 mg/kg, iv; type: ADME, organism-based; design: dose 1 mg/kg, route intravenous; conditions: in vivo
[4] = system: Liver; test: Clearance in rat liver assessed per gram of tissue; type: ADME, tissue-based; conditions: in vivo
[5] = system: Liver; test: Clearance in human liver assessed per gram of tissue; type: ADME, tissue-based
[6] = Blood clearance in Sprague-Dawley rat at 1 mg/kg, iv; type: ADME, organism-based; design: dose 1 mg/kg, route intravenous
[7] = Intrinsic permeability of the compound in MDCK cells expressing MDR1; type: ADME, cell-based, Canis lupus familiaris; conditions: dog
[8] = system: Blood; test: Drug level in novel object recognition model of rat blood at 0.1 mg/kg, po; type: ADME, organism-based; design: dose 0.1 mg/kg, route oral; conditions: in vivo, read-out: Drug uptake

Row | SMILES | Kp at 3 h [1] | concentration at 3 h [2] [nM] | half-life [3] [h] | CLH [4] [mL/min/g] | CLH [5] [mL/min/g] | clearance [6] [mL/min/kg] | Papp [7] [×10⁻⁶ cm/s] | concentration [8] [nM]
1 | Cl.O=C(Nc1ccc(-c2nnc(NCCCN3CCCCC3)o2)cc1)c1ccccc1F | 1.7 | 205 | 2.9 | < 0.2 | 0.5 | 67 |  | 
2 | COc1cc(NC(=O)c2ccccc2F)ccc1-c1nnc(NCCCN2CCCCC2)o1.Cl | 0.4 | 270 | 3.2 | < 0.5 | < 0.3 | 28 |  | 
3 | COc1cc(NC(=O)c2ccccc2F)ccc1-c1nnc(NCCCN2CCCCC2)o1 |  |  |  |  |  |  | 32.5 | 205
4 | COc1cc(NC(=O)c2ccccc2F)ccc1-c1nnc(NCCCN2CCOCC2)o1.Cl | 0.12 | 294 | 0.6 | < 0.5 | 0.5 | 41 |  | 
